ChEMBL document CHEMBL4052831, “The Discovery of N-(1-Methyl-5-(trifluoromethyl)-1H-pyrazol-3-yl)-5-((6- ((methylamino)methyl)pyrimidin-4-yl)oxy)-1H-indole-1-carboxamide (Acrizanib), a VEGFR-2 Inhibitor Specifically Designed for Topical Ocular Delivery, as a Therapy for Neovascular Age-Related Macular Degeneration” (J Med Chem, 2018)
Activity calls are given as the source filed them. No cut-off for these calls is given here.

Key:
Mus musculus = experiment: Antiangiogenic activity in C57BL/6 mouse laser-induced choroidal neovascularization model assessed as inhibition of neovascularization administered 1% suspension using 3.5 uL topical drop to both eyes every 3 hrs for 9 hrs by microscopic analysis
[1] = Intrinsic clearance in rat liver microsomes at 1 uM after 5 to 30 mins by LC-MS/MS analysis; format: ADME, microsome; conditions: read-out: CLH
Rattus norvegicus = experiment: Antiangiogenic activity in Brown Norway rat laser-induced choroidal neovascularization model assessed as inhibition of neovascularization administered 1% suspension using 4 uL topical drop to both eyes every 3 hrs for 9 hrs by microscopic analysis
[2] = target: Vascular endothelial growth factor receptor 2 (Homo sapiens, UniProt P35968)
Chain of Vascular endothelial growth factor receptor 2 (P35968 whole entry): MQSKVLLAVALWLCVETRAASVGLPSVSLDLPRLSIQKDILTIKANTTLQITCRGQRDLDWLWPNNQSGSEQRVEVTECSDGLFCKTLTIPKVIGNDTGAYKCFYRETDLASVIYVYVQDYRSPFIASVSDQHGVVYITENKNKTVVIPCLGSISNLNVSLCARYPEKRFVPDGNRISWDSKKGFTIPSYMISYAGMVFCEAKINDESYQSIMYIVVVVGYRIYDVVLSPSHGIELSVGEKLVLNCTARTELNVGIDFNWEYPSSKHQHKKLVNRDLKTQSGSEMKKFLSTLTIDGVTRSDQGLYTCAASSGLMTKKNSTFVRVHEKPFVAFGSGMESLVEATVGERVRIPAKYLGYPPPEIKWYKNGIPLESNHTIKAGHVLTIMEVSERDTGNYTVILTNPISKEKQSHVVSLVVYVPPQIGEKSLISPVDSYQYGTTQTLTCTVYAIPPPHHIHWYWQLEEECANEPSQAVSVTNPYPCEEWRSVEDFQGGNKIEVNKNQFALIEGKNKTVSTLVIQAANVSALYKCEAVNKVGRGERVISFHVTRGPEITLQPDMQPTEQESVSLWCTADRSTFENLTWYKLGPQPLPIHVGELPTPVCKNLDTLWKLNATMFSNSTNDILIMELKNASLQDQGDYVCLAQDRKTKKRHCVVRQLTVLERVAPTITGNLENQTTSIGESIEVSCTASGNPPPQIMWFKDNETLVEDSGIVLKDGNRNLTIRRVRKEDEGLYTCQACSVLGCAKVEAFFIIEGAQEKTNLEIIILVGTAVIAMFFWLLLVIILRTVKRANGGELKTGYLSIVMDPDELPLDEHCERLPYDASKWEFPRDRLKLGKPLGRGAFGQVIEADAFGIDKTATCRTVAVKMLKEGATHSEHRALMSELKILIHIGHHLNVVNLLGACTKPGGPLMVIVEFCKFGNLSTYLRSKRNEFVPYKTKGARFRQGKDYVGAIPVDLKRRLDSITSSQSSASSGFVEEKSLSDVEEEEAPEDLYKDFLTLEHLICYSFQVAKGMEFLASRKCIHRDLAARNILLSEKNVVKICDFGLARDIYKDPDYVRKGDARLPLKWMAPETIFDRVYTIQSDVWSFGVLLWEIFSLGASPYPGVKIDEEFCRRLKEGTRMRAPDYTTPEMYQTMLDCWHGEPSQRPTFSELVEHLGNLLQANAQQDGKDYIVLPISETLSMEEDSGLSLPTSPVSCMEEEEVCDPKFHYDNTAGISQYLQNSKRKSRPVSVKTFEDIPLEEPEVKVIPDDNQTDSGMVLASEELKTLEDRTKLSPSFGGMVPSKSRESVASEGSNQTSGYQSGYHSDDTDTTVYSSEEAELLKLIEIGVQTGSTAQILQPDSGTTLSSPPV
Description: Inhibition of KDR (unknown origin) expressed in mouse Ba/F3 cells

Row | SMILES | microsomal CLint at 1 µM [1] | inhibition (Mus musculus) | also measured
1 | CC(C)(CO)c1cc(NC(=O)n2ccc3cc(Oc4ncnc5c4CNC5)ccc32)no1 | – | inactive | –
2 | O=C(Nc1cc(C2CC2)on1)n1ccc2cc(Oc3ncnc4c3CCNC4)ccc21 | – | inactive | –
3 | Nc1nccc(Oc2ccc3c(C(=O)Nc4cccc(C(F)(F)F)c4)cccc3c2)n1 | – | – | inhibition (Rattus norvegicus): inactive; IC50 [2]: 1.7 nM
4 | O=C(Nc1cc(C2(CO)CC2)on1)n1ccc2cc(Oc3ncnc4c3CNC4)ccc21 | – | inactive | –

Second part, led by results:

Row | microsomal CLint at 1 µM [1] | SMILES | inhibition (Mus musculus) | also measured
5 | 131 µL/min/mg | CNCc1cc(Oc2ccc3c(ccn3C(=O)Nc3cc(C(F)(F)F)[nH]n3)c2)ncn1 | – | –
6 | 91 µL/min/mg | CNCc1cc(Oc2ccc3c(ccn3C(=O)Nc3cc(C4(C)CC4)on3)c2)ncn1 | – | –
7 | 43 µL/min/mg | CNCc1cc(Oc2ccc3c(ccn3C(=O)Nc3cccc(C(F)(F)F)c3)c2)ncn1 | – | –
